Key:
[1] = DSC doublet peak area of normal blonde hair after 12 heat cycles (lyxosylamine)
Description: Normal brown hair was processed with Revlon Realistic Professional Extra-Strength Relaxer for 30 min. at standard room temperature and humidity. The relaxed brown hair was subjected to six heat cycles, each heat cycle comprised applying the treatment solutions to the hair, blow-drying the hair, and applying heat to the hair for 1 min. in the form of the Professional Flat Iron (Solid Gold) set at “High” (130° C. to 135° C.). The hair was shampooed with a 10% solution of sodium laureth sulfate after each heat cycle, that is, after the heat application and prior to application of the treatment solution.
Normal blonde hair was subjected to 12 heat cycles, as described in Example 2, using a 0.1 wt % solution of D-Lyxosylamine.

[2] = DSC doublet peak area of bleached hair after twelve heat cycles (galactosamine)
Description: In the DSC experiments (using DSC-6 with Autosampler, Perkin Elmer), the hair was cut in small fragments (1-2 mm) and sealed in […] aluminum pans that were punctured prior to heating, resulting in a 50 micron laser-drilled opening in the pan lid. The hair was heated from 25° C. to 300° C. at a heating rate of 2^0° C./min. Three runs per section were performed. The results were averaged and standard deviations determined. Normal brown hair was processed with Revlon Realistic Professional Extra-Strength Relaxer for 30 min. at standard room temperature and humidity. The relaxed brown hair was subjected to six heat cycles, each heat cycle comprised applying the treatment solutions to the hair, blow-drying the hair, and applying heat to the hair for 1 min. in the form of the Professional Flat Iron (Solid Gold) set at “High” (130° C. to 135° C.). The hair was shampooed with a 10% solution of sodium laureth sulfate after each heat cycle, that is, after the heat application and prior to application of the treatment solution. Normal brown hair was bleached with […] Blonde Dimensions Dust-Free Bleached mixed with 40 volume (12% hydrogen peroxide). The bleached hair was then subject to twelve heat cycles. The heat treatment was as described in Example 2. The heat-treated hair was tested by DSC (Perkin Elmer Pyris 1 DSC) as described in Example 1. […]

[3] = Wet tensile strength (Dia-Stron) of relaxed hair after six heat cycles
Description: Normal brown hair was processed with Revlon Realistic Professional Extra-Strength Relaxer for 30 min. at standard room temperature and humidity. The relaxed brown hair was subjected to six heat cycles, each heat cycle comprised applying the treatment solutions to the hair, blow-drying the hair, and applying heat to the hair for 1 min. in the form of the Professional Flat Iron (Solid Gold) set at “High” (130° C. to 135° C.). The hair was shampooed with a 10% solution of sodium laureth sulfate after each heat cycle, that is, after the heat application and prior to application of the treatment solution. The treatment solutions included: a) deionized water; and b) 1% (w/v) glucosamine hydrochloride (Glucosamine HCl). The hair was tested for wet tensile strength using a Dia-Stron. The fibers were stretched in water at a rate of 10 mm/min., with 50 fibers per test. The results were averaged, and standard deviations determined. As used herein, “Young's modulus” corresponds to the initial resistance of the hair to the applied pulling force, “Work 25%” is the work required to extend the hair fiber to 25% of its length, “Break Extension” is the hair extension observed at the breaking point expressed at percent of its original length, and “Work-Break” is the work required to break the hair.

[4] = DSC doublet peak area of bleached hair after 6 and 12 heat cycles
Description: In the DSC experiments (using DSC-6 with Autosampler, Perkin Elmer), the hair was cut in small fragments (1-2 mm) and sealed in […] aluminum pans that were punctured prior to heating, resulting in a 50 micron laser-drilled opening in the pan lid. The hair was heated from 25° C. to 300° C. at a heating rate of 2^0° C./min. Three runs per section were performed. The results were averaged and standard deviations determined. Normal brown hair was processed with Revlon Realistic Professional Extra-Strength Relaxer for 30 min. at standard room temperature and humidity. The relaxed brown hair was subjected to six heat cycles, each heat cycle comprised applying the treatment solutions to the hair, blow-drying the hair, and applying heat to the hair for 1 min. in the form of the Professional Flat Iron (Solid Gold) set at “High” (130° C. to 135° C.). The hair was shampooed with a 10% solution of sodium laureth sulfate after each heat cycle, that is, after the heat application and prior to application of the treatment solution. Normal brown hair was bleached using […] Blonding Gels Clear with 40 volume (12% hydrogen peroxide). The hair was subject to a total of twelve heat cycles. The heat treatment was as described in Example 2. The heat-treated hair was tested by DSC (Perkin Elmer Pyris 1 DSC) as described in Example 1. The hair was tested after Cycles 6 and 12. The treatment solutions included: a) deionized water, b) 0.001% (w/v) glucosamine hydrochloride solution, c) 0.010% (w/v) glucosamine hydrochloride solution, d) 0.100% (w/v) glucosamine hydrochloride solution, and e) 1.000% (w/v) glucosamine hydrochloride solution. Three DSC runs per treatment were performed, the results were averaged, and standard deviations determined.

[5] = DSC doublet peak area (alpha-structure) of relaxed hair after six heat cycles
Description: In the DSC experiments (using DSC-6 with Autosampler, Perkin Elmer), the hair was cut in small fragments (1-2 mm) and sealed in […] aluminum pans that were punctured prior to heating, resulting in a 50 micron laser-drilled opening in the pan lid. The hair was heated from 25° C. to 300° C. at a heating rate of 2^0° C./min. Three runs per section were performed. The results were averaged and standard deviations determined. Normal brown hair was processed with Revlon Realistic Professional Extra-Strength Relaxer for 30 min. at standard room temperature and humidity. The relaxed brown hair was subjected to six heat cycles, each heat cycle comprised applying the treatment solutions to the hair, blow-drying the hair, and applying heat to the hair for 1 min. in the form of the Professional Flat Iron (Solid Gold) set at “High” (130° C. to 135° C.). The hair was shampooed with a 10% solution of sodium laureth sulfate after each heat cycle, that is, after the heat application and prior to application of the treatment solution. The treatment solutions included: a) deionized water; and b) 1% (w/v) glucosamine hydrochloride (Glucosamine HCl). The hair swatches from Example 2 were studied by differential scanning calorimetry (DSC). In this example, the hair was equilibrated at standard room temperature and humidity for 24 hours prior to testing.

[6] = 1% solution, relaxed hair, six heat cycles
[7] = relaxed hair after 6 cycles at 130° C. with 1% (w/v) solution, wet tensile, n = 50 fibers

NC1OC[C@@H](O)[C@H](O)[C@@H]1O (stereo partly drawn) [D-Lyxosylamine]
protection of the α-structure of hair as compared to the control solution (deionized water) ([1]; 0.1 wt % solution, normal blonde hair, 12 heat cycles): protected the α-structure
Doublet Peak Area ([1]; normal blonde hair after 12 heat cycles with 0.1% solution): 11.49 +/− 3.56 J/g hair

Cl.N[C@H]1C(O)O[C@H](CO)[C@H](O)[C@@H]1O (some centres unmarked) [Galactosamine HCI, galactosamine hydrochloride]
doublet area as compared to the control solution (deionized water) ([2]; 1% solution, bleached hair, 12 heat cycles): significant increase
Doublet Peak Area ([2]; bleached hair after 12 heat cycles with 1% solution): 41.52 +/− 3.94 J/g hair

Cl.N[C@H]1C(O)O[C@H](CO)[C@@H](O)[C@@H]1O (some centres unmarked) [Glucosamine HCl, glucosamine hydrochloride]
tensile properties as compared to the control treatment with deionized water [3, 6]: superior tensile properties
Break Extension [3, 7]: 55.10 +/− 4.77%
Work 25% [3, 7]: 419 +/− 111 J/m^2
Work-Break [3, 7]: 1800 +/− 477 J/m^2
Young's Modulus [3, 7]: 613 +/− 196 MN/m^2
Doublet Peak Area ([4]; 0.001% solution, 6 cycles): 11.11 +/− 1.74 J/g hair
Doublet Peak Area ([4]; 0.001% solution, 12 cycles): 14.74 +/− 5.95 J/g hair
doublet area as compared to the control solution (deionized water) ([4]; 0.001% to 1.000% solutions, 6 and 12 heat cycles): significant increase
Doublet Peak Area ([4]; 0.010% solution, 6 cycles): 12.32 +/− 3.74 J/g hair
Doublet Peak Area ([4]; 0.010% solution, 12 cycles): 21.66 +/− 12.88 J/g hair
Doublet Peak Area ([4]; 0.100% solution, 6 cycles): 17.32 +/− 2.23 J/g hair
Doublet Peak Area ([4]; 0.100% solution, 12 cycles): 20.92 +/− 1.73 J/g hair
Doublet Peak Area ([4]; 1.000% solution, 6 cycles): 19.40 +/− 4.14 J/g hair
Doublet Peak Area ([4]; 1.000% solution, 12 cycles): 22.98 +/− 6.57 J/g hair
doublet area as compared to the control solution (deionized water) [5, 6]: significant increase
Doublet Peak Area ([5]; relaxed hair after 6 heat cycles with 1% solution): 23.11 +/− 7.09 J/g hair
